Where “and” joins values, the source holds several entries; their conditions need not be identical. Identical values can stand only once.
System: Long Evans rats
Assay: Behavioral satiety sequence (BSS)
Assay type: in vivo, Long Evans rat
From the text: The Behavioural Satiety Sequence (BSS) is a technique used to evaluate physiological satiety. It is based on the expression of a sequence of behaviors including eating, grooming, locomotor activity, followed by resting, which are typically observed in rodents post-ingestion (Halford et al, 1998, Pharmacology Biochemistry and Behaviour. 61(2): 159-168). The BSS is a widely used model for determining the effects of novel pharmaceuticals on food intake and measures of satiety in rodents (Oliveira et al, 2011, Revista de Nutrição. 24(4) 619-628), and to discriminate the cause of reduced food intake following pharmacological manipulation. For example, treatments that may reduce food intake by non-specific mechanisms, such as immobility, malaise, and taste adulteration, will disrupt this sequence (Halford et al, 1998, Pharmacology Biochemistry and Behaviour. 61(2): 159-168).
Specifically, 12 male Long-Evans rats were food-deprived for 22 h with a 2 h feeding period each day. Rats were trained to consume daily food during the 2 h period over 25 days. The testing phase was initiated once the rats consistently consumed 16-18 g of food per day with ≤10% variance in amount of feed consumed. Feeding took place in designated individual boxes in a quiet room separate from the housing room. Continuous remote monitoring via video camera during feeding was used to assess the BSS. Food consumption was measured by weighing the total available food before and after the 2 h feeding window, correcting for spillage. Lorcaserin (1 mg/kg) was included as a reference control (Higgins et al, 2011, Neuropsychopharmacology. 37(5): 1177-1191). Subjects were tested using a repeated-measures, Latin square design with 2-3 days wash-out between treatment cycles.
On scheduled test days, animals were monitored remotely via video camera during the feeding access period. The occurrence of four mutually exclusive behaviors (eating/drinking, grooming, active, rest) were individually scored. Over the 2 h feeding period, behaviors were assessed every 30 seconds. Scores were compiled into 23 5 min timebins (timebin 24 was removed due to early removal of animals) and the frequency of each behavior within each timebin was calculated to determine a temporal frequency of each measure (Rodgers et al, 2010, Pharmacology Biochemistry and Behaviour. 97: 3-14). Percentage time was plotted for each behavioral sequence in each timebin to compare between treatment groups (Higgins et al, 2011, Neuropsychopharmacology. 37(5): 1177-1191).

[1] = 0.3 mg/kg, raw score per animal LT-1 to LT-12
[2] = 1 mg/kg, raw data per animal (LT-1 to LT-12)

Clc1ccc(C2(OCC3OCCO3)c3ccccc3C3=NCCN32)cc1 (stereo not drawn) [Compound I-19]
BSS scoring A (active), Time Bin 16 (75-80 TOTAL) [1]: 0 (6×) and 2 (3×) and 3 (3×) | BSS scoring A (active), Time Bin 17 (80-85 TOTAL) [1]: 0 (3×) and 2 and 1 (5×) and 3 and 5 (2×) | BSS scoring A (active), Time Bin 18 (85-90 TOTAL) [1]: 4 and 0 (5×) and 8 and 2 (2×) and 1 and 5 (2×) | BSS scoring E (eating/drinking), Time Bin 13 (60-65 TOTAL) [1]: 10 (3×) and 7 (4×) and 8 (3×) and 9 and 6 | BSS scoring E (eating/drinking), Time Bin 14 (65-70 TOTAL) [1]: 9 (5×) and 6 and 10 (2×) and 7 and 8 (2×) and 2 | BSS scoring E (eating/drinking), Time Bin 15 (70-75 TOTAL) [1]: 9 and 6 (4×) and 4 and 1 and 7 (3×) and 5 and 3 | BSS scoring E (eating/drinking), Time Bin 16 (75-80 TOTAL) [1]: 10 (4×) and 6 (2×) and 9 and 8 and 7 (3×) and 5 | BSS scoring E (eating/drinking), Time Bin 17 (80-85 TOTAL) [1]: 10 (3×) and 5 and 4 (4×) and 7 (2×) and 9 (2×) | BSS scoring E (eating/drinking), Time Bin 18 (85-90 TOTAL) [1]: 4 and 9 (3×) and 8 and 0 and 6 (2×) and 10 and 3 (2×) and 7 | BSS scoring G (grooming), Time Bin 13 (60-65 TOTAL) [1]: 0 (8×) and 1 (4×) | BSS scoring G (grooming), Time Bin 14 (65-70 TOTAL) [1]: 0 (9×) and 1 (3×) | BSS scoring G (grooming), Time Bin 15 (70-75 TOTAL) [1]: 0 (7×) and 1 (5×) | BSS scoring G (grooming), Time Bin 16 (75-80 TOTAL) [1]: 0 (11×) and 1 | BSS scoring G (grooming), Time Bin 17 (80-85 TOTAL) [1]: 0 (8×) and 2 (2×) and 1 (2×) | BSS scoring G (grooming), Time Bin 18 (85-90 TOTAL) [1]: 2 (2×) and 1 (8×) and 0 (2×) | BSS scoring R (resting), Time Bin 13 (60-65 TOTAL) [1]: 0 (7×) and 2 (3×) and 1 (2×) | BSS scoring R (resting), Time Bin 14 (65-70 TOTAL) [1]: 0 (7×) and 1 (4×) and 2 | BSS scoring R (resting), Time Bin 15 (70-75 TOTAL) [1]: 1 (3×) and 0 (6×) and 3 and 2 (2×) | BSS scoring R (resting), Time Bin 16 (75-80 TOTAL) [1]: 0 (6×) and 2 (3×) and 1 (3×) | BSS scoring R (resting), Time Bin 17 (80-85 TOTAL) [1]: 0 (7×) and 1 (2×) and 4 and 3 and 2 | BSS scoring R (resting), Time Bin 18 (85-90 TOTAL) [1]: 0 (6×) and 1 (5×) and 2 | BSS scoring A (active), Time Bin 19 (90-95 TOTAL), AVG (1 mg/kg, AVG of LT-1 to LT-12): 0.14 | BSS scoring A (active), Time Bin 20 (95-100 TOTAL), AVG (1 mg/kg, AVG of LT-1 to LT-12): 0.10 | BSS scoring A (active), Time Bin 21 (100-105 TOTAL), AVG (1 mg/kg, AVG of LT-1 to LT-12): 0.14 | BSS scoring A (active), Time Bin 22 (105-110 TOTAL), AVG (1 mg/kg, AVG of LT-1 to LT-12): 0.15 | BSS scoring A (active), Time Bin 23 (110-115 TOTAL), AVG (1 mg/kg, AVG of LT-1 to LT-12): 0.18 | BSS scoring A (active), Time Bin 24 (115-120 TOTAL), AVG (1 mg/kg, AVG of LT-1 to LT-12): 0.15 | BSS scoring E (eating/drinking), Time Bin 19 (90-95 TOTAL), AVG (1 mg/kg, AVG of LT-1 to LT-12): 0.58 | BSS scoring E (eating/drinking), Time Bin 20 (95-100 TOTAL), AVG (1 mg/kg, AVG of LT-1 to LT-12): 0.73 | BSS scoring E (eating/drinking), Time Bin 21 (100-105 TOTAL), AVG (1 mg/kg, AVG of LT-1 to LT-12): 0.61 | BSS scoring E (eating/drinking), Time Bin 22 (105-110 TOTAL), AVG (1 mg/kg, AVG of LT-1 to LT-12): 0.63 | BSS scoring E (eating/drinking), Time Bin 23 (110-115 TOTAL), AVG (1 mg/kg, AVG of LT-1 to LT-12): 0.59 | BSS scoring E (eating/drinking), Time Bin 24 (115-120 TOTAL), AVG (1 mg/kg, AVG of LT-1 to LT-12): 0.41 | BSS scoring G (grooming), Time Bin 19 (90-95 TOTAL), AVG (1 mg/kg, AVG of LT-1 to LT-12): 0.02 | BSS scoring G (grooming), Time Bin 20 (95-100 TOTAL), AVG (1 mg/kg, AVG of LT-1 to LT-12): 0.01 | BSS scoring G (grooming), Time Bin 21 (100-105 TOTAL), AVG (1 mg/kg, AVG of LT-1 to LT-12): 0.01 | BSS scoring G (grooming), Time Bin 22 (105-110 TOTAL), AVG (1 mg/kg, AVG of LT-1 to LT-12): 0.08 | BSS scoring G (grooming), Time Bin 23 (110-115 TOTAL), AVG (1 mg/kg, AVG of LT-1 to LT-12): 0.06 | BSS scoring G (grooming), Time Bin 24 (115-120 TOTAL), AVG (1 mg/kg, AVG of LT-1 to LT-12): 0.02 | BSS scoring R (resting), Time Bin 19 (90-95 TOTAL), AVG (1 mg/kg, AVG of LT-1 to LT-12): 0.26 | BSS scoring R (resting), Time Bin 20 (95-100 TOTAL), AVG (1 mg/kg, AVG of LT-1 to LT-12): 0.17 | BSS scoring R (resting), Time Bin 21 (100-105 TOTAL), AVG (1 mg/kg, AVG of LT-1 to LT-12): 0.24 | BSS scoring R (resting), Time Bin 22 (105-110 TOTAL), AVG (1 mg/kg, AVG of LT-1 to LT-12): 0.14 | BSS scoring R (resting), Time Bin 23 (110-115 TOTAL), AVG (1 mg/kg, AVG of LT-1 to LT-12): 0.18 | BSS scoring R (resting), Time Bin 24 (115-120 TOTAL), AVG (1 mg/kg, AVG of LT-1 to LT-12): 0.26 | BSS scoring A (active), Time Bin 19 (90-95 TOTAL) [2]: 0 (6×) and 4 and 1 (3×) and 7 and 3 | BSS scoring A (active), Time Bin 20 (95-100 TOTAL) [2]: 0 (8×) and 6 and 3 and 1 and 2 | BSS scoring A (active), Time Bin 21 (100-105 TOTAL) [2]: 0 (7×) and 5 (3×) and 1 (2×) | BSS scoring A (active), Time Bin 22 (105-110 TOTAL) [2]: 1 (3×) and 3 (3×) and 0 (4×) and 4 and 2 | BSS scoring A (active), Time Bin 23 (110-115 TOTAL) [2]: 8 and 0 (5×) and 4 (2×) and 2 and 1 (3×) | BSS scoring A (active), Time Bin 24 (115-120 TOTAL) [2]: 6 and 0 (6×) and 1 and 3 and 2 (2×) and 4 | BSS scoring E (eating/drinking), Time Bin 19 (90-95 TOTAL) [2]: 10 (3×) and 8 (3×) and 5 and 9 and 0 (3×) and 2 | BSS scoring E (eating/drinking), Time Bin 20 (95-100 TOTAL) [2]: 10 (5×) and 6 and 3 and 8 and 2 and 9 (2×) and 0 | BSS scoring E (eating/drinking), Time Bin 21 (100-105 TOTAL) [2]: 10 (5×) and 2 (2×) and 5 and 3 (2×) and 8 and 0 | BSS scoring E (eating/drinking), Time Bin 22 (105-110 TOTAL) [2]: 9 and 6 (4×) and 10 and 5 and 7 (2×) and 8 and 3 (2×) | BSS scoring E (eating/drinking), Time Bin 23 (110-115 TOTAL) [2]: 0 and 7 (4×) and 10 (2×) and 3 and 5 (2×) and 6 and 4 | BSS scoring E (eating/drinking), Time Bin 24 (115-120 TOTAL) [2]: 0 (3×) and 2 (2×) and 10 and 5 (3×) and 3 and 9 and 8 | BSS scoring G (grooming), Time Bin 19 (90-95 TOTAL) [2]: 0 (10×) and 1 (2×) | BSS scoring G (grooming), Time Bin 20 (95-100 TOTAL) [2]: 0 (11×) and 1 | BSS scoring G (grooming), Time Bin 21 (100-105 TOTAL) [2]: 0 (11×) and 1 | BSS scoring G (grooming), Time Bin 22 (105-110 TOTAL) [2]: 0 (7×) and 1 (2×) and 2 (2×) and 3 | BSS scoring G (grooming), Time Bin 23 (110-115 TOTAL) [2]: 1 (3×) and 0 (7×) and 2 (2×) | BSS scoring G (grooming), Time Bin 24 (115-120 TOTAL) [2]: 0 (10×) and 1 (2×) | BSS scoring R (resting), Time Bin 19 (90-95 TOTAL) [2]: 0 (5×) and 2 (3×) and 1 and 9 and 8 and 7 | BSS scoring R (resting), Time Bin 20 (95-100 TOTAL) [2]: 0 (6×) and 4 and 1 (2×) and 2 and 5 and 7 | BSS scoring R (resting), Time Bin 21 (100-105 TOTAL) [2]: 0 (5×) and 3 (3×) and 2 (2×) and 6 and 10 | BSS scoring R (resting), Time Bin 22 (105-110 TOTAL) [2]: 0 (5×) and 1 (2×) and 4 (2×) and 2 (2×) and 3 | BSS scoring R (resting), Time Bin 23 (110-115 TOTAL) [2]: 1 (3×) and 3 (4×) and 0 (3×) and 2 and 4 | BSS scoring R (resting), Time Bin 24 (115-120 TOTAL) [2]: 4 (2×) and 7 (2×) and 0 (4×) and 2 and 5 and 1 (2×) | BSS scoring A (active), Time Bin 19 (90-95 TOTAL), AVG (3 mg/kg, AVG of LT-1 to LT-12): 0.18 | BSS scoring A (active), Time Bin 20 (95-100 TOTAL), AVG (3 mg/kg, AVG of LT-1 to LT-12): 0.19 | BSS scoring A (active), Time Bin 21 (100-105 TOTAL), AVG (3 mg/kg, AVG of LT-1 to LT-12): 0.22 | BSS scoring A (active), Time Bin 22 (105-110 TOTAL), AVG (3 mg/kg, AVG of LT-1 to LT-12): 0.20 | BSS scoring A (active), Time Bin 23 (110-115 TOTAL), AVG (3 mg/kg, AVG of LT-1 to LT-12): 0.19 | BSS scoring A (active), Time Bin 24 (115-120 TOTAL), AVG (3 mg/kg, AVG of LT-1 to LT-12): 0.27

— patent publication US20250108038A1 (priority 2023, published 2025)
